Data as given in publication PMC2854131 (PLoS ONE, 2010).
Read-outs that look alike come from different tables or passages of the source.

Columns and labels:
[1] = physchem; conditions: water
[2] = target: BoNTA (Clostridium botulinum, UniProt P0DPI0); set-up: species or system Balb/c mice; conditions: mouse, in vivo
[3] = mouse, in vivo
[4] = in vivo; conditions: Balb/c, mouse, ip, 2 mg/kg
[5] = Balb/c, mouse, in vivo, ip, 2 mg/kg
[6] = target: T1, recombinant BoNTAe (BoNTA endopeptidase) (Clostridium botulinum, UniProt P0DPI0); assay: biochemical; conditions: read-out: % BoNTAe inhibition
[7] = target: T1, recombinant BoNTAe (BoNTA endopeptidase); conditions: cited from earlier work

SMILES | solubility [1] [mM] | survival during the 12-hour period after the BoNTA challenge, in words [2] | treated mice that died 48 hours after the toxin challenge [2] [%] | acute toxicity to mice, in words [3] | AUC(0-t) [4] [ng·h/mL] | Cmax [4] [ng/mL] | half-life ([4]; T1/2) [h] | half-life ([4]; in vivo half-life (t1/2)) [h] | C24 (concentration 24 hours after one dose) [5] [ng/mL] | inhibition at 20 µM [6] [%] | protection (survival) of mice 24 hours after the toxin challenge [2] [%] | protection (survival) of mice 48 hours after the toxin challenge [2] [%] | protection (survival) of mice during the 12-hour period after the toxin challenge [2] [%] | Ki ([7]; read-out: Ki^app) [µM] | serotype specificity of BoNTAe inhibition, in words [7] | Ki ([7]; read-out: Ki app) [µM]
NCCCCn1c(-c2ccccc2)c(F)c2ccc(C(=O)c3cc(CC(=O)NO)c(-c4cccc(N)c4)s3)cc21 [Inhibitor F3A, 2-(5-(1-(4-Aminobutyl)-3-fluoro-2-phenyl-1H-indole-6-carbonyl)-2-(3-aminophenyl)thiophen-3-yl)-N-hydroxyacetamide] | ≥ 5 | all mice treated with any of the three inhibitors survived | 90 | no acute toxicity | 1390 | 256 | 6.25 | ~6 | 7.0 | 47 ± 1 | – | – | – | – | – | –
NCCCCn1c(-c2ccccc2)c(F)c2ccc(C(=O)c3cc(CC(=O)NO)c(-c4ccc(O)cc4)s3)cc21 [Inhibitor F4H, 2-(5-(1-(4-Aminobutyl)-3-fluoro-2-phenyl-1H-indole-6-carbonyl)-2-(4-hydroxyphenyl)thiophen-3-yl)-N-hydroxyacetamide] | ≥ 5 | all mice treated with any of the three inhibitors survived | 40 | no acute toxicity | 1390 | 738 | 6.5 | ~6 | <0.5 | 82 ± 6 | 70 | 60 | 100 | – | – | –
NCCCCn1c(-c2ccccc2)cc2ccc(C(=O)c3cc(CC(=O)NO)c(-c4ccccc4)s3)cc21 [APH, reference compound] | – | – | – | – | – | – | – | – | – | – | – | – | – | 7 | – | –
NCCCCn1c(-c2ccccc2)cc2ccc(C(=O)c3cc(CC(=O)NO)c(-c4cccc(O)c4)s3)cc21 [Inhibitor H3H] | – | all mice treated with any of the three inhibitors survived | 40 | no acute toxicity | 1550 | 497 | 4.35 | ~4 | 3.0 | 78 ± 4 | – | – | – | 4 | serotype-specific | 3.8 ± 0.77
